# In US5919771A, “Urea and thiourea derivatives of glycopeptides” (Eli Lilly and Company, priority 1998, dated 1999):
# How the values were obtained:
# Type in all cases: cell-based
# [1] = system: Staphylococcus aureus 489; assay: MIC, standard broth micro-dilution assay, SA 489
# Method: (§1) The antibacterial efficacy of the present compounds is illustrated by Table II. The minimal inhibitory concentrations (MICs) were determined using a standard broth micro-dilution assay.
# [2] = system: Staphylococcus aureus 446; assay: MIC, standard broth micro-dilution assay, SA 446
# Method: as §1
# [3] = system: Staphylococcus haemolyticus 415; assay: MIC, standard broth micro-dilution assay, SH 415
# Method: as §1
# [4] = system: Enterococcus faecium and faecalis (RESISTANT); conditions: geometric mean of 4-6 isolates
# Method: as §1
# [5] = system: Enterococcus faecium and faecalis (SENSITIVE); conditions: geometric mean of 4-6 isolates
# Method: as §1
# [6] = system: Staphylococcus aureus 447; assay: MIC, standard broth micro-dilution assay, SA 447
# Method: as §1
# [7] = system: Streptococcus pyogenes C203; assay: MIC, standard broth micro-dilution assay, SPY C203
# Method: as §1
# [8] = system: Staphylococcus haemolyticus 105; assay: MIC, standard broth micro-dilution assay, SH 105
# Method: as §1
# [9] = system: Streptococcus pneumoniae P1; assay: MIC, standard broth micro-dilution assay, SPN P1
# Method: as §1
# [10] = system: Staphylococcus epidermidis 270; assay: MIC, standard broth micro-dilution assay, SE 270
# Method: as §1
Structure (SMILES),Minimal Inhibitory Concentration (MIC) SA 489 [1],Minimal Inhibitory Concentration (MIC) SA 446 [2],Minimal Inhibitory Concentration (MIC) SH 415 [3],Minimal Inhibitory Concentration (MIC) RESISTANT [4],Minimal Inhibitory Concentration (MIC) SENSITIVE [5],Minimal Inhibitory Concentration (MIC) SA 447 [6],Minimal Inhibitory Concentration (MIC) SPY C203 [7],Minimal Inhibitory Concentration (MIC) SH 105 [8],Minimal Inhibitory Concentration (MIC) SPN P1 [9],Minimal Inhibitory Concentration (MIC) SE 270 [10]
"CC(C)CC(C(=O)NC1C(=O)NC(CC(N)=O)C(=O)NC2C(=O)NC3C(=O)NC(C(=O)NC(C(=O)O)c4cc(O)cc(O)c4-c4cc3ccc4O)C(OC3CC(C)(N)C(O)C(C)O3)c3ccc(c(Cl)c3)Oc3cc2cc(c3OC2OC(CO)C(O)C(O)C2OC2CC(C)(N)C(O)C(C)O2)Oc2ccc(cc2Cl)C1O)N(C)C(=S)Nc1ccc([N+](=O)[O-])cc1 (stereo not shown) [Example 14, N^LEU -((p-NITROPHENYL)-THIOCARBAMOYL)A82846B]",2,2,32,> 128,3.5,4,≤ 0.06,16,0.25,4
"CC(C)CC(C(=O)NC1C(=O)NC(CC(N)=O)C(=O)NC2C(=O)NC3C(=O)NC(C(=O)NC(C(=O)O)c4cc(O)cc(O)c4-c4cc3ccc4O)C(OC3CC(C)(N)C(O)C(C)O3)c3ccc(c(Cl)c3)Oc3cc2cc(c3OC2OC(CO)C(O)C(O)C2OC2CC(C)(NCc3ccc(-c4ccc(Cl)cc4)cc3)C(O)C(C)O2)Oc2ccc(cc2Cl)C1O)N(C)C(=S)Nc1ccccc1 (stereo not shown) [Example 22, N^LEU -(PHENYLTHIOCARBAMOYL)-N^DISACC -(p-(p-CHLOROPHENYL)-BENZYL)A82846B]",1,2,2,6.7,2.6,1,≤ .06,1,≤ .06,0.5
"CC(C)CC(C(=O)NC1C(=O)NC(CC(N)=O)C(=O)NC2C(=O)NC3C(=O)NC(C(=O)NC(C(=O)O)c4cc(O)cc(O)c4-c4cc3ccc4O)C(OC3CC(C)(N)C(O)C(C)O3)c3ccc(c(Cl)c3)Oc3cc2cc(c3OC2OC(CO)C(O)C(O)C2OC2CC(C)(NCc3ccc(Oc4ccccc4)cc3)C(O)C(C)O2)Oc2ccc(cc2Cl)C1O)N(C)C(=S)Nc1ccc(OCc2ccccc2)cc1 (stereo not shown) [Example 20, N^LEU -((p-(BENZYLOXY)PHENYL)-THIOCARBAMOYL)-N^DISACC -(p-PHENOXYBENZYL)A82846B]",2,4,2,9.5,5.6,2,≤ 0.06,2,4,1
"CC(C)CC(C(=O)NC1C(=O)NC(CC(N)=O)C(=O)NC2C(=O)NC3C(=O)NC(C(=O)NC(C(=O)O)c4cc(O)cc(O)c4-c4cc3ccc4O)C(OC3CC(C)(N)C(O)C(C)O3)c3ccc(c(Cl)c3)Oc3cc2cc(c3OC2OC(CO)C(O)C(O)C2OC2CC(C)(N)C(O)C(C)O2)Oc2ccc(cc2Cl)C1O)N(C)C(=S)Nc1ccc(N(C)C)cc1 (stereo not shown) [Example 15, N^LEU -((p-(DIMETHYLAMINO)-PHENYL)THIOCARBAMOYL)A82846B]",4,8,> 64,> 128,24,16,0.25,> 64,0.25,16
"COc1ccc(NC(=S)N(C)C(CC(C)C)C(=O)NC2C(=O)NC(CC(N)=O)C(=O)NC3C(=O)NC4C(=O)NC(C(=O)NC(C(=O)O)c5cc(O)cc(O)c5-c5cc4ccc5O)C(OC4CC(C)(N)C(O)C(C)O4)c4ccc(c(Cl)c4)Oc4cc3cc(c4OC3OC(CO)C(O)C(O)C3OC3CC(C)(NCc4ccc(Cl)cc4)C(O)C(C)O3)Oc3ccc(cc3Cl)C2O)cc1 (stereo not shown) [Example 13, N^LEU -((p-METHOXYPHENYL)-THIOCARBAMOYL)-N^DISACC -(p-CHLOROBENZYL)A82846B]",2,4,8,> 128,3.5,2,≤ 0.06,4,≤ 0.06,2
"CC(C)C[C@H](C(=O)N[C@H]1C(=O)N[C@@H](CC(N)=O)C(=O)N[C@H]2C(=O)N[C@H]3C(=O)N[C@H](C(=O)N[C@H](C(=O)O)c4cc(O)cc(O)c4-c4cc3ccc4O)[C@H](O[C@H]3C[C@](C)(N)[C@@H](O)[C@H](C)O3)c3ccc(c(Cl)c3)Oc3cc2cc(c3O[C@@H]2O[C@H](CO)[C@@H](O)[C@H](O)[C@H]2O[C@H]2C[C@](C)(NCc3ccc(-c4ccccc4)cc3)[C@@H](O)[C@H](C)O2)Oc2ccc(cc2Cl)[C@H]1O)N(C)C(=S)Nc1ccccc1 [Example 4, N^LEU -(PHENYLTHIOCARBAMOYL)-N^DISACC -(p-PHENYLBENZYL)A82846B]",0.125,2,1,14,4,1,≤ 0.06,2,0.125,0.5
"CC(C)CC(C(=O)NC1C(=O)NC(CC(N)=O)C(=O)NC2C(=O)NC3C(=O)NC(C(=O)NC(C(=O)O)c4cc(O)cc(O)c4-c4cc3ccc4O)C(OC3CC(C)(N)C(O)C(C)O3)c3ccc(c(Cl)c3)Oc3cc2cc(c3OC2OC(CO)C(O)C(O)C2OC2CC(C)(N)C(O)C(C)O2)Oc2ccc(cc2Cl)C1O)N(C)C(=S)Nc1cccc2ccccc12 (stereo not shown) [Example 5, N^LEU -(1-NAPHTHYLTHIOCARBAMOYL)A82846B]",> 64,8,> 64,> 128,9.5,8,0.5,64,1,32
"CC(C)CC(C(=O)NC1C(=O)NC(CC(N)=O)C(=O)NC2C(=O)NC3C(=O)NC(C(=O)NC(C(=O)O)c4cc(O)cc(O)c4-c4cc3ccc4O)C(OC3CC(C)(N)C(O)C(C)O3)c3ccc(c(Cl)c3)Oc3cc2cc(c3OC2OC(CO)C(O)C(O)C2OC2CC(C)(NCc3ccc(Oc4ccccc4)cc3)C(O)C(C)O2)Oc2ccc(cc2Cl)C1O)N(C)C(=S)Nc1ccc(N(C)C)cc1 (stereo not shown) [Example 19, N^LEU -((p-(DIMETHYLAMINO)-PHENYL)THIOCARBAMOYL)-N^DISACC -(p-PHENOXYBENZYL)A82846B]",2,2,4,19,2.6,2,0.25,2,2,2
"CC(C)CC(C(=O)NC1C(=O)NC(CC(N)=O)C(=O)NC2C(=O)NC3C(=O)NC(C(=O)NC(C(=O)O)c4cc(O)cc(O)c4-c4cc3ccc4O)C(OC3CC(C)(N)C(O)C(C)O3)c3ccc(c(Cl)c3)Oc3cc2cc(c3OC2OC(CO)C(O)C(O)C2OC2CC(C)(N)C(O)C(C)O2)Oc2ccc(cc2Cl)C1O)N(C)C(=S)Nc1ccc(OCc2ccccc2)cc1 (stereo not shown) [Example 16, N^LEU -((p-(BENZYLOXY)PHENYL)-THIOCARBAMOYL)A82846B]",0.5,1,64,> 128,7,1,≤ 0.06,8,0.125,4
"CC(C)CC(C(=O)NC1C(=O)NC(CC(N)=O)C(=O)NC2C(=O)NC3C(=O)NC(C(=O)NC(C(=O)O)c4cc(O)cc(O)c4-c4cc3ccc4O)C(OC3CC(C)(N)C(O)C(C)O3)c3ccc(c(Cl)c3)Oc3cc2cc(c3OC2OC(CO)C(O)C(O)C2OC2CC(C)(NCc3ccc(Cl)cc3)C(O)C(C)O2)Oc2ccc(cc2Cl)C1O)N(C)C(=S)Nc1ccc(Cl)cc1 (stereo not shown) [Example 12, N^LEU -((p-CHLOROPHENYL)-THIOCARBAMOYL)-N^DISACC -(p-CHLOROBENZYL)A82846B]",1,4,4,128,3.5,1,≤ 0.06,2,≤ 0.06,1
